Publication PMC12888861, “Antibacterial activity of enmetazobactam against Acinetobacter spp.: a molecular dissection of mechanism of action and resistance determinants” (Antimicrobial Agents and Chemotherapy, 2025)

Test system: carbapenem-resistant A. baumannii (CRAB) isolates (n = 67)
Test: MIC, broth microdilution (EUCAST), carbapenem-resistant A. baumannii isolates
Assay type: cell-based, Acinetobacter baumannii
Conditions: for MIC: Acinetobacter baumannii
Outline: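 Broth microdilution per EUCAST v.15 guidelines on clinical Acinetobacter isolates from a Spanish 2020 multicenter collection; enmetazobactam also tested alone. A. baumannii ATCC 19606 served as reference strain, in duplicate assays.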

[1] = CHDLs-producing A. baumannii isolates (n = 67), durlobactam series, DUR fixed 4 mg/L in combinations

## CC1(C)[C@H](C(=O)O)N2C(=O)C[C@H]2S1(=O)=O [sulbactam]
Isolate Ab56, ST 1, ADC-75, OXA-69, OXA-23, ETZ fixed 8 mg/L in combinations
  MIC: 8 µg/mL
Isolate Ab83, ST 25, ADC-5, OXA-64, OXA-23, DUR fixed at 4 mg/L in combinations
  MIC: 32 µg/mL
Isolate Ab83, ST 25, ADC-5, OXA-64, OXA-23, ETZ fixed 8 mg/L in combinations
  MIC: 32 µg/mL
Isolate Ab109, ST 1, ADC-75, OXA-69, OXA-23, DUR fixed at 4 mg/L in combinations
  MIC: 16 µg/mL
Isolate Ab109, ST 1, ADC-75, OXA-69, OXA-23, ETZ fixed 8 mg/L in combinations
  MIC: 16 µg/mL
Isolate Ab133, ST 2, ADC-30, OXA-66, OXA-58, TEM-12, DUR fixed at 4 mg/L in combinations
  MIC: 32 µg/mL
Isolate Ab133, ST 2, ADC-30, OXA-66, OXA-58, TEM-12, ETZ fixed 8 mg/L in combinations
  MIC: 32 µg/mL
Isolate Ab134, ST 2, ADC-30, OXA-66, OXA-58, TEM-12, DUR fixed at 4 mg/L in combinations
  MIC: 32 µg/mL
Isolate Ab134, ST 2, ADC-30, OXA-66, OXA-58, TEM-12, ETZ fixed 8 mg/L in combinations
  MIC: 32 µg/mL
Isolate Ab137, ST 85, ADC-2, OXA-94, OXA-23, DUR fixed at 4 mg/L in combinations
  MIC: 16 µg/mL
Isolate Ab137, ST 85, ADC-2, OXA-94, OXA-23, ETZ fixed 8 mg/L in combinations
  MIC: 16 µg/mL
Isolate Ab138, ST 745, ADC-30, OXA-66, OXA-58, DUR fixed at 4 mg/L in combinations
  MIC: 4 µg/mL
Isolate Ab138, ST 745, ADC-30, OXA-66, OXA-58, ETZ fixed 8 mg/L in combinations
  MIC: 8 µg/mL
Isolate Ab140, ST 85, ADC-2, OXA-94, OXA-23, DUR fixed at 4 mg/L in combinations
  MIC: 16 µg/mL
Isolate Ab140, ST 85, ADC-2, OXA-94, OXA-23, ETZ fixed 8 mg/L in combinations
  MIC: 16 µg/mL
Isolate Ab141, ST 745, ADC-30, OXA-66, OXA-58, DUR fixed at 4 mg/L in combinations
  MIC: 8 µg/mL
Isolate Ab141, ST 745, ADC-30, OXA-66, OXA-58, ETZ fixed 8 mg/L in combinations
  MIC: 8 µg/mL
Isolate Ab144, ST 745, ADC-30, OXA-66, OXA-58, DUR fixed at 4 mg/L in combinations
  MIC: 8 µg/mL
Isolate Ab144, ST 745, ADC-30, OXA-66, OXA-58, ETZ fixed 8 mg/L in combinations
  MIC: 8 µg/mL
Isolate Ab169, ST 2, ADC-30, OXA-66, OXA-23, DUR fixed at 4 mg/L in combinations
  MIC: 16 µg/mL
Isolate Ab169, ST 2, ADC-30, OXA-66, OXA-23, ETZ fixed 8 mg/L in combinations
  MIC: 16 µg/mL
Isolate Ab171, ST 2, ADC-30, OXA-66, OXA-23, DUR fixed at 4 mg/L in combinations
  MIC: 16 µg/mL
Isolate Ab171, ST 2, ADC-30, OXA-66, OXA-23, ETZ fixed 8 mg/L in combinations
  MIC: 16 µg/mL
Isolate Ab173, ST 2, ISAba1-ADC-30, OXA-66, OXA-23, DUR fixed at 4 mg/L in combinations
  MIC: 32 µg/mL
Isolate Ab173, ST 2, ISAba1-ADC-30, OXA-66, OXA-23, ETZ fixed 8 mg/L in combinations
  MIC: 32 µg/mL
Isolate Ab174, ST 2, ADC-30, OXA-66, OXA-23, DUR fixed at 4 mg/L in combinations
  MIC: 16 µg/mL
Isolate Ab174, ST 2, ADC-30, OXA-66, OXA-23, ETZ fixed 8 mg/L in combinations
  MIC: 16 µg/mL
Isolate Ab179, ST 2, ADC-30, OXA-66, OXA-23, DUR fixed at 4 mg/L in combinations
  MIC: 16 µg/mL
Isolate Ab179, ST 2, ADC-30, OXA-66, OXA-23, ETZ fixed 8 mg/L in combinations
  MIC: 16 µg/mL
Isolate Ab180, ST 2, ADC-30, OXA-66, OXA-24/40, DUR fixed at 4 mg/L in combinations
  MIC: 4 µg/mL
Isolate Ab180, ST 2, ADC-30, OXA-66, OXA-24/40, ETZ fixed 8 mg/L in combinations
  MIC: 4 µg/mL
Isolate Ab181, ST 2, ADC-30, OXA-66, OXA-23, DUR fixed at 4 mg/L in combinations
  MIC: 16 µg/mL
Isolate Ab181, ST 2, ADC-30, OXA-66, OXA-23, ETZ fixed 8 mg/L in combinations
  MIC: 16 µg/mL
Isolate Ab182, ST 2, ADC-30, OXA-66, OXA-23, DUR fixed at 4 mg/L in combinations
  MIC: 8 µg/mL
Isolate Ab182, ST 2, ADC-30, OXA-66, OXA-23, ETZ fixed 8 mg/L in combinations
  MIC: 8 µg/mL
Isolate Ab183, ST 2, ADC-30, OXA-66, OXA-23, DUR fixed at 4 mg/L in combinations
  MIC: 8 µg/mL
Isolate Ab183, ST 2, ADC-30, OXA-66, OXA-23, ETZ fixed 8 mg/L in combinations
  MIC: 8 µg/mL
Isolate Ab184, ST 2, ADC-30, OXA-66, OXA-23, DUR fixed at 4 mg/L in combinations
  MIC: 16 µg/mL
Isolate Ab184, ST 2, ADC-30, OXA-66, OXA-23, ETZ fixed 8 mg/L in combinations
  MIC: 16 µg/mL
Isolate Ab186, ST 2, ADC-30, OXA-66, OXA-23, DUR fixed at 4 mg/L in combinations
  MIC: 16 µg/mL
Isolate Ab186, ST 2, ADC-30, OXA-66, OXA-23, ETZ fixed 8 mg/L in combinations
  MIC: 16 µg/mL
Isolate Ab191, ST 2, ADC-30, OXA-66, OXA-23, DUR fixed at 4 mg/L in combinations
  MIC: 16 µg/mL
Isolate Ab191, ST 2, ADC-30, OXA-66, OXA-23, ETZ fixed 8 mg/L in combinations
  MIC: 16 µg/mL
Isolate Ab192, ST 2, ADC-30, OXA-66, OXA-23, DUR fixed at 4 mg/L in combinations
  MIC: 16 µg/mL
Isolate Ab192, ST 2, ADC-30, OXA-66, OXA-23, ETZ fixed 8 mg/L in combinations
  MIC: 16 µg/mL
Isolate Ab194, ST 2, ADC-30, OXA-66, OXA-23, DUR fixed at 4 mg/L in combinations
  MIC: 16 µg/mL
Isolate Ab194, ST 2, ADC-30, OXA-66, OXA-23, ETZ fixed 8 mg/L in combinations
  MIC: 16 µg/mL
Isolate Ab199, ST 2, ADC-30, OXA-66, OXA-23, DUR fixed at 4 mg/L in combinations
  MIC: 16 µg/mL
Isolate Ab199, ST 2, ADC-30, OXA-66, OXA-23, ETZ fixed 8 mg/L in combinations
  MIC: 16 µg/mL
Isolate Ab201, ST 2, ADC-30, OXA-66, OXA-23, DUR fixed at 4 mg/L in combinations
  MIC: 16 µg/mL
Isolate Ab201, ST 2, ADC-30, OXA-66, OXA-23, ETZ fixed 8 mg/L in combinations
  MIC: 16 µg/mL
Isolate Ab204, ST 2, ADC-30, OXA-66, OXA-23, DUR fixed at 4 mg/L in combinations
  MIC: 16 µg/mL
Isolate Ab204, ST 2, ADC-30, OXA-66, OXA-23, ETZ fixed 8 mg/L in combinations
  MIC: 8 µg/mL
[1]
  MIC50: 16 µg/mL
  MIC90: 32 µg/mL
Cumulative % of CHDLs-producing A. baumannii isolates (n = 67) at MIC 0.12 mg/L, DUR fixed 4 mg/L in combinations
  MIC distribution 0.12: 0.0%
Cumulative % of CHDLs-producing A. baumannii isolates (n = 67) at MIC 0.25 mg/L, DUR fixed 4 mg/L in combinations
  MIC distribution 0.25: 0.0%
Cumulative % of CHDLs-producing A. baumannii isolates (n = 67) at MIC 0.5 mg/L, DUR fixed 4 mg/L in combinations
  MIC distribution 0.5: 0.0%
Cumulative % of CHDLs-producing A. baumannii isolates (n = 67) at MIC 1 mg/L, DUR fixed 4 mg/L in combinations
  MIC distribution 1: 0.0%
Cumulative % of CHDLs-producing A. baumannii isolates (n = 67) at MIC 2 mg/L, DUR fixed 4 mg/L in combinations
  MIC distribution 2: 13.4%
Cumulative % of CHDLs-producing A. baumannii isolates (n = 67) at MIC 4 mg/L, DUR fixed 4 mg/L in combinations
  MIC distribution 4: 20.9%
Cumulative % of CHDLs-producing A. baumannii isolates (n = 67) at MIC 8 mg/L, DUR fixed 4 mg/L in combinations
  MIC distribution 8: 34.3%
Cumulative % of CHDLs-producing A. baumannii isolates (n = 67) at MIC 16 mg/L, DUR fixed 4 mg/L in combinations
  MIC distribution 16: 89.6%
Cumulative % of CHDLs-producing A. baumannii isolates (n = 67) at MIC 32 mg/L, DUR fixed 4 mg/L in combinations
  MIC distribution 32: 100%
Cumulative share of CRAB isolates (n = 67) at MIC 0.12 mg/L, ETZ fixed 8 mg/L in combinations
  MIC distribution 0.12: 0
Cumulative share of CRAB isolates (n = 67) at MIC 0.25 mg/L, ETZ fixed 8 mg/L in combinations
  MIC distribution 0.25: 0
Cumulative share of CRAB isolates (n = 67) at MIC 0.5 mg/L, ETZ fixed 8 mg/L in combinations
  MIC distribution 0.5: 0
Cumulative share of CRAB isolates (n = 67) at MIC 1 mg/L, ETZ fixed 8 mg/L in combinations
  MIC distribution 1: 0
Cumulative share of CRAB isolates (n = 67) at MIC 2 mg/L, ETZ fixed 8 mg/L in combinations
  MIC distribution 2: 14.9
Cumulative share of CRAB isolates (n = 67) at MIC 4 mg/L, ETZ fixed 8 mg/L in combinations
  MIC distribution 4: 17.9
Cumulative share of CRAB isolates (n = 67) at MIC 8 mg/L, ETZ fixed 8 mg/L in combinations
  MIC distribution 8: 34.3
Cumulative share of CRAB isolates (n = 67) at MIC 16 mg/L, ETZ fixed 8 mg/L in combinations
  MIC distribution 16: 89.6
Cumulative share of CRAB isolates (n = 67) at MIC 32 mg/L, ETZ fixed 8 mg/L in combinations
  MIC distribution 32: 100
Cumulative share of CRAB isolates (n = 67) at MIC 64 mg/L, ETZ fixed 8 mg/L in combinations
  MIC distribution 64: 100
